Measured values taken from US11390609B2, “Rho-associated protein kinase inhibitor, pharmaceutical composition comprising same, and preparation method and use thereof” (BEIJING TIDE PHARMACEUTICAL CO., LTD., priority 2017, dated 2022).

What was measured:
[1] = molecular target: ROCK2 (Homo sapiens, UniProt O75116); experiment: ROCK2 kinase IC50 assay (CISBIO HTRF KinEASE-STK S2 kit); format: biochemical; settings: incubated at room temperature for 2 hours
Procedure, shortened: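 HTRF KinEASE-STK S2 format with recombinant ROCK2 (1.4 ng per well), STK-S2 substrate and ATP from 5× working solutions of 1.5 μM each, run 2 h at room temperature. Nine-point dilutions from 10000 nM top concentration; 665/615 nm emission ratio normalised to no-compound and no-kinase controls, curve-fitted for IC50.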

[2] = molecular target: ROCK1 (Homo sapiens (Human), UniProt Q13464); experiment: ROCK1 kinase IC50 assay (biological test method similar to the ROCK2 assay); format: biochemical
Procedure, shortened: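 HTRF KinEASE-STK S2 assay with the STK-S2 biotinylated substrate and ATP, at 5× working solutions of 1.5 µM each. Kinase reaction with 9-point compound dilutions ran 2 h at room temperature, followed by 1 h streptavidin-XL665/Cryptate detection. The 665/615 nm ratio was normalised to no-compound and no-kinase wells, and IC50 was obtained by curve fitting.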

Sequence of ROCK1 (Q13464 whole entry, species assumed): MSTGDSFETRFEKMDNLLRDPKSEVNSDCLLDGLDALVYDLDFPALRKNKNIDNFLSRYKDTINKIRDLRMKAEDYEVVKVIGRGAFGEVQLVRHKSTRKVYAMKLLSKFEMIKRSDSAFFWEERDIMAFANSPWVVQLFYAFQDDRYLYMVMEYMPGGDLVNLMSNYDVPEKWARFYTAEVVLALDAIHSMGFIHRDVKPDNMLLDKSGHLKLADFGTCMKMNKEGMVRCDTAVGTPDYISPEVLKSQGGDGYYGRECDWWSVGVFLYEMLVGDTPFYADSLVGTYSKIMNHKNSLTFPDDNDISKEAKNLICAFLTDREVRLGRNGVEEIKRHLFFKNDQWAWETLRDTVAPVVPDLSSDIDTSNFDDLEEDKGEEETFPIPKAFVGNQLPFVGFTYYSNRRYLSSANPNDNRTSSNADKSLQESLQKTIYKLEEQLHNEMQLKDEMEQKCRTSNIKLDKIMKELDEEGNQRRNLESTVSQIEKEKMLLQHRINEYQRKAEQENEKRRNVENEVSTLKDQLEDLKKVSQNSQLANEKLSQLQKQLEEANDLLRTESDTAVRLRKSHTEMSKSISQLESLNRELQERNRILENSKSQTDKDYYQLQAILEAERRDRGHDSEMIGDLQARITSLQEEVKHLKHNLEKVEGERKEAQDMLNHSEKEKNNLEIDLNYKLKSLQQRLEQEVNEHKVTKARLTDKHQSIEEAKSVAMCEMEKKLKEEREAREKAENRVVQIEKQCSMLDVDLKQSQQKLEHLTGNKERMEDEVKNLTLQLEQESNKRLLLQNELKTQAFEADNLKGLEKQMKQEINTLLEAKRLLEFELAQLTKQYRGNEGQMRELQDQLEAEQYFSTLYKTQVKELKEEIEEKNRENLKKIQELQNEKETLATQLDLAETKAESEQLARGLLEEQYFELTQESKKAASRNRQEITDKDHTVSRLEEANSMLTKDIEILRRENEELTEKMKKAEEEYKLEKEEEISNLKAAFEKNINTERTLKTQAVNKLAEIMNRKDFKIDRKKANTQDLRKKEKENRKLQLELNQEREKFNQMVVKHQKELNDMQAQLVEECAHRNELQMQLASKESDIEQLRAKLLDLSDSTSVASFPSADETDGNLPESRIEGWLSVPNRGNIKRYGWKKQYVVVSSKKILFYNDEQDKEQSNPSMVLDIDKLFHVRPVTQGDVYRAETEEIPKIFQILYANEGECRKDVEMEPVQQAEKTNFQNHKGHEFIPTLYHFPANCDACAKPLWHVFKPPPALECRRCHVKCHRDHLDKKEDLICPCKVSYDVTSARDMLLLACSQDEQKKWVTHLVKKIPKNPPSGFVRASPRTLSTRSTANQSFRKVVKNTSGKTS

| Compound | IC50 [1] [nM] | IC50 [2] [nM] |
| --- | --- | --- |
| O=C(NC1CCCN(c2ccncc2)C1)c1cc2ccc(-c3nccc(Nc4ccc(-c5cn[nH]c5)cc4)n3)cc2[nH]1 (stereo not drawn) [TDI01882, 6-(4-((4-(1H-pyrazol-4-yl)phenyl)-amino)-pyrimidin-2-yl)-N-(1-(pyridin-4-yl)piperidin-3-yl)-1H-indole-2-carboxamide] | 8 | 139 |
| O=C(NC1CCN(c2ccncc2Cl)CC1)c1cc2ccc(-c3nccc(Nc4ccc(-c5cn[nH]c5)cc4)n3)cc2s1 [TDI01884, 6-(4-((4-(1H-pyrazol-4-yl)phenyl)-amino)-pyrimidin-2-yl)-N-(1-(3-chloropyridin-4-yl)piperidin-4-yl)benzo[b]-thiophene-2-carboxamide] | 26 | > 10000 |
| Cn1c(C(=O)N2CC(F)(F)C2)cc2ccc(-c3nccc(Nc4ccc5[nH]ncc5c4)n3)cc21 [TDI01906, (6-(4-((1H-indazol-5-yl)amino)pyrimidin-2-yl)-1-methyl-1H-indol-2-yl)(3,3-difluoroazetidin-1-yl)methanone] | 49 | > 10000 |
| COc1cc(Nc2ccnc(-c3ccc4cc(C(=O)N5CC(F)(F)C5)n(C)c4c3)n2)ccc1-c1cn[nH]c1 [TDI01910, (3,3-difluoroazetidin-1-yl)(6-(4-((3-methoxy-4-(1H-pyrazol-4-yl)phenyl)amino)pyrimidin-2-yl)-1-methyl-1H-indol-2-yl)methanone] | 6 | > 10000 |
| COc1cc(Nc2ccnc(-c3ccc4cc(-c5nccs5)[nH]c4c3)n2)ccc1-c1cn[nH]c1 [TDI01912, N-(3-methoxy-4-(1H-pyrazol-4-yl)phenyl)-2-(2-(thiazol-2-yl)-1H-indol-6-yl)pyrimidin-4-amine] | 44 | > 10000 |
| COc1cnc(-c2ccc3cc(C(=O)N4CC(F)(F)C4)n(C)c3c2)nc1Nc1ccc(-c2cn[nH]c2)cc1 [TDI01915, (6-(4-((4-(1H-pyrazol-4-yl)phenyl)amino)-5-methoxypyrimidin-2-yl)-1-methyl-1H-indol-2-yl)(3,3-difluoroazetidin-1-yl)methanone] | 18 | > 10000 |
| Cn1c(C(=O)N2CC(F)(F)C2)cc2ccc(-c3nc(Nc4ccc(-c5cn[nH]c5)cc4)c4ccccc4n3)cc21 [TDI01918, (6-(4-((4-(1H-pyrazol-4-yl)phenyl)amino)quinazolin-2-yl)-1-methyl-1H-indol-2-yl)(3,3-difluoroazetidin-1-yl)methanone] | 165 | > 10000 |
| Cn1c(-c2nccs2)cc2ccc(-c3nccc(Nc4ccc(-c5cn[nH]c5)cc4)n3)cc21 [TDI01919] | 62 | 4060 |
| COCn1c(C(=O)N2CC(F)(F)C2)cc2ccc(-c3nccc(Nc4ccc(-c5cn[nH]c5)cc4)n3)cc21 [TDI01920, (6-(4-((4-(1H-pyrazol-4-yl)phenyl)amino)pyrimidin-2-yl)-1-(methoxymethyl)-1H-indol-2-yl)(3,3-difluoroazetidin-1-yl)methanone] | 200 | > 10000 |
| C=Cn1c(C(=O)N2CC(F)(F)C2)cc2ccc(-c3nccc(Nc4ccc(-c5cn[nH]c5)cc4)n3)cc21 [TDI01923, (6-(4-((4-(1H-pyrazol-4-yl)phenyl)amino)pyrimidin-2-yl)-1-vinyl-1H-indol-2-yl)(3,3-difluoroazetidin-1-yl)methanone] | 50 | > 10000 |
| c1cc(Nc2ccc(-c3cn[nH]c3)nc2)nc(-c2ccc3cc(-c4nccs4)[nH]c3c2)n1 [TDI01940, N-(6-(1H-pyrazol-4-yl)pyridin-3-yl)-2-(2-(thiazol-2-yl)-1H-indol-6-yl)pyrimidin-4-amine] | 147 | > 10000 |
| Cn1c(C(=O)N2CC(F)(F)C2)cc2ccc(-c3nc(Nc4ccc(-c5cn[nH]c5)cc4)c4ccsc4n3)cc21 [TDI01947, (6-(4-((4-(1H-pyrazol-4-yl)phenyl)amino)thieno[2,3-d]pyrimidin-2-yl)-1-methyl-1H-indol-2-yl)(3,3-difluoroazetidin-1-yl)methanone] | 88 | > 10000 |
| Cn1c(C(=O)N2CC(F)(F)C2)cc2ccc(-c3nc(Nc4ccc(-c5cn[nH]c5)cc4)c4cccn4n3)cc21 [TDI01948, (6-(4-((4-(1H-pyrazol-4-yl)phenyl)amino)pyrrolo[2,1-f][1,2,4]triazin-2-yl)-1-methyl-1H-indol-2-yl)(3,3-difluoroazetidin-1-yl)methanone] | 103 | > 10000 |
| Cn1c(C(=O)N2CC(F)(F)C2)cc2ccc(-c3ncc(Cl)c(Nc4ccc(-c5cn[nH]c5)cc4)n3)cc21 [TDI01949, (6-(4-((4-(1H-pyrazol-4-yl)phenyl)amino)-5-chloropyrimidin-2-yl)-1-methyl-1H-indol-2-yl)(3,3-difluoroazetidin-1-yl)methanone] | 59 | > 10000 |
| O=C(NC1CC(F)(F)C1)N1Cc2ccc(-c3nccc(Nc4ccc(-c5cn[nH]c5)cc4)n3)cc2C1 [TDI01951, 5-(4-((4-(1H-pyrazol-4-yl)phenyl)amino)pyrimidin-2-yl)-N-(3,3-difluorocyclobutyl) isoindoline-2-carboxamide] | 27 | > 10000 |
| Cc1[nH]ncc1-c1ccc(Nc2ccnc(-c3ccc4cc(C(=O)N5CC(F)(F)C5)n(C)c4c3)n2)cc1 [TDI01955, (3,3-difluoroazetidin-1-yl)(1-methyl-6-(4-((4-(5-methyl-1H-pyrazol-4-yl)phenyl)amino)pyrimidin-2-yl)-1H-indol-2-yl)methanone] | 33 | > 10000 |

Further lines, results first:

| IC50 [1] [nM] | IC50 [2] [nM] | Compound |
| --- | --- | --- |
| 131 | > 10000 | O=C(N1CCc2cc(-c3nccc(Nc4ccc(-c5cn[nH]c5)cc4)n3)ccc2C1)N1CC(F)(F)C1 [TDI01959, (6-(4-((4-(1H-pyrazol-4-yl)phenyl)amino)pyrimidin-2-yl)-3,4-dihydroisoquinolin-2(1H)-yl)(3,3-difluoroazetidin-1-yl)methanone] |
| 50 | > 10000 | Cn1c(C(=O)N2CC(F)(F)C2)cc2ccc(-c3nc4c(c(Nc5ccc(-c6cn[nH]c6)cc5)n3)CCC4)cc21 [TDI01960, (6-(4-((4-(1H-pyrazol-4-yl)phenyl)amino)-6,7-dihydro-5H-cyclopenta[d]pyrimidin-2-yl)-1-methyl-1H-indol-2-yl)(3,3-difluoroazetidin-1-yl)methanone] |
| 45 | > 10000 | O=C(C1CC(F)(F)C1)N1Cc2ccc(-c3nccc(Nc4ccc5[nH]ncc5c4)n3)cc2C1 [TDI01967, (5-(4-((1H-indazol-5-yl)amino)pyrimidin-2-yl)isoindolin-2-yl)(3,3-difluorocyclobutyl) methanone] |
| 296 | > 10000 | CN1CCC[C@H]1C(=O)N1Cc2ccc(-c3nccc(Nc4ccc(-c5cn[nH]c5)cc4)n3)cc2C1 [TDI01968A, 5-(4-((4-(1H-pyrazol-4-yl)phenyl)amino)pyrimidin-2-yl)-2-(methyl-L-prolyl)isoindoline] |
| 52 | > 10000 | CN1CCc2nc(C(=O)N3Cc4ccc(-c5nccc(Nc6ccc(-c7cn[nH]c7)cc6)n5)cc4C3)sc2C1 [TDI01973, (5-(4-((4-(1H-pyrazol-4-yl)phenyl)amino)pyrimidin-2-yl)isoindolin-2-yl)(5-methyl-4,5,6,7-tetrahydrothiazolo[5,4-c]pyridin-2-yl)methanone] |
| 186 | > 10000 | CN(C)C(=O)N1Cc2ccc(-c3nc(Nc4ccc(-c5cn[nH]c5)cc4)c4occc4n3)cc2C1 [TDI01974, 5-(4-((4-(1H-pyrazol-4-yl)phenyl)amino)furo[3,2-d]pyrimidin-2-yl)-N,N-dimethylisoindoline-2-carboxamide] |
| 137 | > 10000 | O=C(C1CC(F)(F)C1)N1Cc2ccc(-c3nccc(Nc4ccc(-c5cn[nH]c5)cn4)n3)cc2C1 [TDI01979, (5-(4-((5-(1H-pyrazol-4-yl)pyridin-2-yl)amino)pyrimidin-2-yl)isoindolin-2-yl)(3,3-difluorocyclobutyl)methanone] |
| 385 | > 10000 | CC(O)C(=O)N1Cc2ccc(-c3nccc(Nc4ccc(-c5cn[nH]c5)cc4)n3)cc2C1 (stereo not drawn) [TDI01989, 1-(5-(4-((4-(1H-pyrazol-4-yl)phenyl)amino)pyrimidin-2-yl)isoindolin-2-yl)-2-hydroxypropan-1-one] |
